Source: publication PMC7127349 (Bioorganic & Medicinal Chemistry Letters, 2018)

Test system: human coronavirus (229E)
Type: cell-based
Conditions: not given

Molecule	activity against human coronavirus (229E) lower than the activity observed with UDA
CCOC(=O)C1(Cc2ccccc2)CN(c2ccccc2)Cc2nnn(Cc3ccc(F)cc3)c21 (stereo not drawn) [Compound 14d]	approximately 50 fold
CCOC(=O)C1(Cc2ccc(F)cc2)CN(c2ccccc2)Cc2nnn(Cc3ccc(Cl)c(Cl)c3)c21 (stereo not drawn) [Compound 14q]	approximately 50 fold
CCOC(=O)C1(Cc2ccccc2)CN(c2ccccc2)Cc2nnn(CCc3cc4ccccc4[nH]3)c21 (stereo not drawn) [Compound 14n]	approximately 50 fold
Fc1cccc(Cn2nnc3c2CCN(c2ccc(C(F)(F)F)cc2)C3)c1 [Compound 18i]	approximately 50 fold
COc1ccc(CCn2nnc3c2CCN(c2ccc(C(F)(F)F)cc2)C3)cc1 [Compound 18f]	approximately 50 fold

Same assay, conditions: read-out: EC50 Human Coronavirus (229E)

Molecule	EC50 [nM]
Urtica dioica agglutinin (protein, UniProt P11218 24-372, looked up) Lectin/endochitinase 1: QRCGSQGGGGTCPALWCCSIWGWCGDSEPYCGRTCENKCWSGERSDHRCGAAVGNPPCGQDRCCSVHGWCGGGNDYCSGSKCQYRCSSSVRGPRVALSGNSTANSIGNVVVTEPLFDQMFSHRKDCPSQGFYSYHSFLVAAESFPAFGTIGDVATRKREVAAFLAHISQATSGERSDVENPHAWGLCHINTTTVTENDFCTSSDWPCAAGKKYSPRGPIQLTHNFNYGLAGQAIGEDLIQNPDLVEKDPIISFKTALWFWMSQHDNKPSCHDIVLNANSAANRIPNKGVIGNIISRAFGHDDFAVRSSSIGFYKRYCDMLGVSYGHDLKYWFDNTPSSEFQRIQMRVAA	200
